The values that follow come from ChEMBL document CHEMBL3392986, “Hydroxamic acids block replication of hepatitis C virus” (J Med Chem, 2015).

Experiment [1] has as its target Histone deacetylase 9 (Homo sapiens) (UniProt Q9UKV0). Description: Inhibition of full length C-terminal His-tagged human HDAC9 (amino acids 604 to 1066 ) expressed in baculovirus expression system assessed as inhibition of fluorophore 7-amino-4-methylcoumarin release by fluorescence assay.
The target in experiment [2] is T1, Polyamine deacetylase HDAC10 (Homo sapiens) (UniProt Q969S8).
T1 sequence (whole entry): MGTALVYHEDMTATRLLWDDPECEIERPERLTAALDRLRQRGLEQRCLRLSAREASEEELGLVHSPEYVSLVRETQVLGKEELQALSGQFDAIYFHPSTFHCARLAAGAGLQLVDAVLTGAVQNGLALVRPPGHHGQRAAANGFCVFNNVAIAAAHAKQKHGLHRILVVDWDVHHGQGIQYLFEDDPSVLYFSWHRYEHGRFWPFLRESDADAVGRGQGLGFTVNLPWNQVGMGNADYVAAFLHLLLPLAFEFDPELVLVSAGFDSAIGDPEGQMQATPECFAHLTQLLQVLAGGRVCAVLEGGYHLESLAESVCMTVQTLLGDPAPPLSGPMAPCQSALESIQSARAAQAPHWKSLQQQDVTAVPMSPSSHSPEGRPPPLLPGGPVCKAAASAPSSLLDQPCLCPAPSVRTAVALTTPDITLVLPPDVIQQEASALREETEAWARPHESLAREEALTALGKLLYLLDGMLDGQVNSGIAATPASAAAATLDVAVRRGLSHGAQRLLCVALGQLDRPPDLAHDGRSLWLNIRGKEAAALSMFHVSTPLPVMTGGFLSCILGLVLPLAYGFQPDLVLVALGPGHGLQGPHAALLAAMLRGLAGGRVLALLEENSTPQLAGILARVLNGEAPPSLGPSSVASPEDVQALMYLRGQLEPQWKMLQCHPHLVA
Put plainly: Inhibition of full length N-terminal GST-tagged human HDAC10 (amino acids 1 to 631 ) expressed in baculovirus expression system assessed as inhibition of fluorophore 7-amino-4-methylcoumarin release by fluorescence assay.

The source made the active and inactive calls. No cut-off for these calls is given here.

Chain of Histone deacetylase 9 (Homo sapiens) (Q9UKV0 whole entry, the tested form may be a part): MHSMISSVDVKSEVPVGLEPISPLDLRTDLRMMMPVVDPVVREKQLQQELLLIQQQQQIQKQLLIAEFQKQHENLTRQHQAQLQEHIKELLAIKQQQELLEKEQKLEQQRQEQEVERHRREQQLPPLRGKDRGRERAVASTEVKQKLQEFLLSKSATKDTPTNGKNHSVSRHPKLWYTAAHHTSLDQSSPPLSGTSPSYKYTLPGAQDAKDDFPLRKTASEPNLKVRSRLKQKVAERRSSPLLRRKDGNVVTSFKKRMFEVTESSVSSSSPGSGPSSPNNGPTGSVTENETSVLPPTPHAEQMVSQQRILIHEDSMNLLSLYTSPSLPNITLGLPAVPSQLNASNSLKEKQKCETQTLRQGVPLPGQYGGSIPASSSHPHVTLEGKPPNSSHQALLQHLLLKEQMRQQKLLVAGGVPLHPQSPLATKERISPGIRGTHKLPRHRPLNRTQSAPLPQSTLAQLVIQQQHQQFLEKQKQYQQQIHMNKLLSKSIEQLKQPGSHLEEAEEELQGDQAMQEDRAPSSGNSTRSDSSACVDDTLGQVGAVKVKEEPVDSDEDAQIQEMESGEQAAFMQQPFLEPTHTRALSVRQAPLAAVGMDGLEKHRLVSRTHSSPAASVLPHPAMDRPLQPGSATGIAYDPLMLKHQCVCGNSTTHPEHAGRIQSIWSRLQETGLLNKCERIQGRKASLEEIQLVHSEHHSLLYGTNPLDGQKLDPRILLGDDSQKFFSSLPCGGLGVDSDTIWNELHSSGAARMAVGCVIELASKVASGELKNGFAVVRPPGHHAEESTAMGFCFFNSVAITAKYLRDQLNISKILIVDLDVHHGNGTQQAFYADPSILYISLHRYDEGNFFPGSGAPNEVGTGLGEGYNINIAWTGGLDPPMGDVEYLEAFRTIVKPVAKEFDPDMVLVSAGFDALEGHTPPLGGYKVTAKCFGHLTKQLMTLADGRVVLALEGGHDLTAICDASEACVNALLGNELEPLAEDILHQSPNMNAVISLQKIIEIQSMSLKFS

Consider `O=C(NO)c1sc2ccccc2c1S(=O)(=O)c1ccccc1`, for which the inhibition entry in experiment [1] and in experiment [2] was “inactive” throughout.
